According to ChEMBL document CHEMBL2074281, “Drug excretion mediated by a new prototype of polyspecific transporter” (Nature, 1994):

B1: Solute carrier family 22 member 1 (Rattus norvegicus) (protein)
chain: MPTVDDVLEQVGEFGWFQKQAFLLLCLISASLAPIYVGIVFLGFTPGHYCQNPGVAELSQRCGWSQAEELNYTVPGLGPSDEASFLSQCMRYEVDWNQSTLDCVDPLSSLVANRSQLPLGPCEHGWVYDTPGSSIVTEFNLVCGDAWKVDLFQSCVNLGFFLGSLVVGYIADRFGRKLCLLVTTLVTSVSGVLTAVAPDYTSMLLFRLLQGMVSKGSWVSGYTLITEFVGSGYRRTTAILYQMAFTVGLVGLAGVAYAIPDWRWLQLAVSLPTFLFLLYYWFVPESPRWLLSQKRTTRAVRIMEQIAQKNGKVPPADLKMLCLEEDASEKRSPSFADLFRTPNLRKHTVILMYLWFSCAVLYQGLIMHVGATGANLYLDFFYSSLVEFPAAFIILVTIDRIGRIYPIAASNLVTGAACLLMIFIPHELHWLNVTLACLGRMGATIVLQMVCLVNAELYPTFIRNLGMMVCSALCDLGGIFTPFMVFRLMEVWQALPLILFGVLGLTAGAMTLLLPETKGVALPETIEEAENLGRRKSKAKENTIYLQVQTGKSSST

These molecules were tested against T1, Solute carrier family 22 member 1 (Rattus norvegicus, UniProt Q63089) (assay: TP_TRANSPORTER: inhibition of TEA uptake in Xenopus laevis oocytes).
T1 sequence (Q63089 whole entry): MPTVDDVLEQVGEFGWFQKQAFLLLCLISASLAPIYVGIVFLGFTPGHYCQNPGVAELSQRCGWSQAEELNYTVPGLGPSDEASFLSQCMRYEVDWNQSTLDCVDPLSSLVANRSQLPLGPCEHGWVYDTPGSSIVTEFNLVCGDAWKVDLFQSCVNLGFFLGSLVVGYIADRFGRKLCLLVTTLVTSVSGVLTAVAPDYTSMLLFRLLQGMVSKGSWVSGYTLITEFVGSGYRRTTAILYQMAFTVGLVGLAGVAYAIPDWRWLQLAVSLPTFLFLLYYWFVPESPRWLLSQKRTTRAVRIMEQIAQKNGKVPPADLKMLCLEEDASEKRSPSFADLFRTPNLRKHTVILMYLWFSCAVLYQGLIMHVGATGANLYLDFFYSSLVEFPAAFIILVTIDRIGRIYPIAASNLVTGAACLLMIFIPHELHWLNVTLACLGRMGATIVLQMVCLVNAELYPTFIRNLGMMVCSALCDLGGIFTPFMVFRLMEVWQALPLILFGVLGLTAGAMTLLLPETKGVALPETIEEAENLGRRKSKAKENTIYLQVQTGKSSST
Type: functional, cell-based, Oocyte

Question: For `CNC(=O)c1cccnc1` [NICOTINYL METHYLAMIDE], which Ki is on record?
Answer: Its Ki is 1000 µM.

Question: For `C[C@]12C[C@H](O)[C@H]3[C@@H](CCC4=CC(=O)CC[C@@]43C)[C@@H]1CC[C@@H]2C(=O)CO` [CORTICOSTERONE], which Ki is on record?
Answer: Its Ki is greater than 10 µM.

Question: Which Ki does the source give for `CC[n+]1c(CC2C=C(C)N=C(c3ccccc3)N2C)ccc2ccccc21` (stereo unspecified) [Cyanine-863] here?
Answer: The Ki was 0.13 µM.

Question: For `COc1cc(C(O)CNC(C)C)ccc1O` (stereo unspecified) [METIPRENALINE], which Ki is on record?
Answer: The Ki was 43 µM.

Question: With `COC(=O)[C@H]1[C@H]2C[C@@H]3c4[nH]c5cc(OC)ccc5c4CCN3C[C@H]2C[C@@H](OC(=O)c2cc(OC)c(OC)c(OC)c2)[C@@H]1OC` [RESERPINE] as the molecule, how does the Ki read?
Answer: Its Ki is greater than 20 µM.

These molecules were tested on CC[N+](CC)(CC)CC (assay: cells, lysate or membranes named).

Question: How did the Km turn out when B1 was run?
Answer: The Km was 95 µM.
